In brackets after ≈: the same amount, converted by molar mass. Like-named read-outs stand apart in the source and are kept apart here.
How the values were obtained:
E. coli GC 2235 = assay: MIC, broth microdilution; settings: Escherichia coli
E. coli GC 2272 = assay: MIC, broth microdilution; settings: Escherichia coli
E. coli GC 4559 = assay: MIC, broth microdilution; settings: Escherichia coli
E. coli GC 4560 = assay: MIC, broth microdilution; settings: Escherichia coli
E. coli GC 6465 = assay: MIC, broth microdilution; settings: Escherichia coli
E. coli GC 1073 = assay: MIC, broth microdilution; settings: Escherichia coli
S. typhimurium GC 2172 = assay: MIC, broth microdilution; settings: Salmonella enterica, TYPHIMURIUM
S. aureus GC 1131 = assay: MIC, broth microdilution; settings: Staphylococcus aureus
S. aureus GC 6467 = assay: MIC, broth microdilution; settings: Staphylococcus aureus
S. aureus GC 1079 = assay: MIC, broth microdilution; settings: Staphylococcus aureus
S. aureus GC 4536 = assay: MIC, broth microdilution; settings: Staphylococcus aureus
S. epidermidis GC 4935 = assay: MIC, broth microdilution; settings: Staphylococcus epidermidis
E. faecalis GC 4555 = assay: MIC, broth microdilution; settings: Enterococcus faecalis
E. faecalis GC 2267 = assay: MIC, broth microdilution; settings: Enterococcus faecalis
E. faecalis GC 2242 = assay: MIC, broth microdilution; settings: Enterococcus faecalis
S. pneumoniae* GC 4465 = assay: MIC, broth microdilution; settings: Streptococcus pneumoniae
S. pneumoniae+ GC 4465 = assay: MIC, broth microdilution; settings: Streptococcus pneumoniae
S. agalactiae GC 4564 = assay: MIC, broth microdilution; settings: Streptococcus agalactiae
c. albicans GC 3066 = assay: MIC, broth microdilution
Staph. aureus Smith = assay: In vivo activity (oral, iv; ED50) against Staph. aureus Smith in mice
[1] = read-out: MINIMAL INHIBITORY CONCENTRATION MIC, Human Serum
[2] = read-out: MINIMAL INHIBITORY CONCENTRATION MIC, Mouse Serum
[3] = read-out: MINIMAL INHIBITORY CONCENTRATION MIC, Water

- MIC (E. coli GC 2235; GC2235, read-out: MINIMAL INHIBITORY CONCENTRATION MIC, Human Serum): 4 µg/mL (≈ 5.59 µM)
- MIC (E. coli GC 2235; GC2235, read-out: MINIMAL INHIBITORY CONCENTRATION MIC, Mouse Serum): 0.5 µg/mL (≈ 0.699 µM)
- MIC (E. coli GC 2235; GC2235, read-out: MINIMAL INHIBITORY CONCENTRATION MIC, Water): 8 µg/mL (≈ 11.2 µM)
- MIC (E. coli GC 2272; GC2272, read-out: MINIMAL INHIBITORY CONCENTRATION MIC, Human Serum): 2 µg/mL (≈ 2.79 µM)
- MIC (E. coli GC 2272; GC2272, read-out: MINIMAL INHIBITORY CONCENTRATION MIC, Mouse Serum): 0.5 µg/mL (≈ 0.699 µM)
- MIC (E. coli GC 2272; GC2272, read-out: MINIMAL INHIBITORY CONCENTRATION MIC, Water): 8 µg/mL (≈ 11.2 µM)
- MIC (E. coli GC 4559; GC4559, read-out: MINIMAL INHIBITORY CONCENTRATION MIC, Human Serum): 8 µg/mL (≈ 11.2 µM)
- MIC (E. coli GC 4559; GC4559, read-out: MINIMAL INHIBITORY CONCENTRATION MIC, Mouse Serum): 0.5 µg/mL (≈ 0.699 µM)
- MIC (E. coli GC 4559; GC4559, read-out: MINIMAL INHIBITORY CONCENTRATION MIC, Water): 16 µg/mL (≈ 22.4 µM)
- MIC (E. coli GC 4560; GC4560, read-out: MINIMAL INHIBITORY CONCENTRATION MIC, Human Serum): 0.5 µg/mL (≈ 0.699 µM)
- MIC (E. coli GC 4560; GC4560, read-out: MINIMAL INHIBITORY CONCENTRATION MIC, Mouse Serum): 0.12 µg/mL (≈ 0.168 µM)
- MIC (E. coli GC 4560; GC4560, read-out: MINIMAL INHIBITORY CONCENTRATION MIC, Water): 1 µg/mL (≈ 1.4 µM)
- MIC (E. coli GC 6465; GC6465, read-out: MINIMAL INHIBITORY CONCENTRATION MIC, Human Serum): 32 µg/mL (≈ 44.7 µM)
- MIC (E. coli GC 6465; GC6465, read-out: MINIMAL INHIBITORY CONCENTRATION MIC, Mouse Serum): 2 µg/mL (≈ 2.79 µM)
- MIC (E. coli GC 6465; GC6465, read-out: MINIMAL INHIBITORY CONCENTRATION MIC, Water): > 64 µg/mL
- MIC (E. coli GC 1073; GC1073, read-out: MINIMAL INHIBITORY CONCENTRATION MIC, Human Serum): 8 µg/mL (≈ 11.2 µM)
- MIC (E. coli GC 1073; GC1073, read-out: MINIMAL INHIBITORY CONCENTRATION MIC, Mouse Serum): 0.5 µg/mL (≈ 0.699 µM)
- MIC (E. coli GC 1073; GC1073, read-out: MINIMAL INHIBITORY CONCENTRATION MIC, Water): 32 µg/mL (≈ 44.7 µM)
- MIC (S. typhimurium GC 2172; [1]): 32 µg/mL (≈ 44.7 µM)
- MIC (S. typhimurium GC 2172; [2]): 4 µg/mL (≈ 5.59 µM)
- MIC (S. typhimurium GC 2172; [3]): > 64 µg/mL
- MIC (S. aureus GC 1131; GC1131, read-out: MINIMAL INHIBITORY CONCENTRATION MIC, Human Serum): 0.5 µg/mL (≈ 0.699 µM)
- MIC (S. aureus GC 1131; GC1131, read-out: MINIMAL INHIBITORY CONCENTRATION MIC, Mouse Serum): 0.5 µg/mL (≈ 0.699 µM)
- MIC (S. aureus GC 1131; GC1131, read-out: MINIMAL INHIBITORY CONCENTRATION MIC, Water): 0.5 µg/mL (≈ 0.699 µM)
- MIC (S. aureus GC 6467; GC6467, read-out: MINIMAL INHIBITORY CONCENTRATION MIC, Human Serum): 1 µg/mL (≈ 1.4 µM)
- MIC (S. aureus GC 6467; GC6467, read-out: MINIMAL INHIBITORY CONCENTRATION MIC, Mouse Serum): 1 µg/mL (≈ 1.4 µM)
- MIC (S. aureus GC 6467; GC6467, read-out: MINIMAL INHIBITORY CONCENTRATION MIC, Water): 2 µg/mL (≈ 2.79 µM)
- MIC (S. aureus GC 1079; GC1079, read-out: MINIMAL INHIBITORY CONCENTRATION MIC, Human Serum): 0.5 µg/mL (≈ 0.699 µM)
- MIC (S. aureus GC 1079; GC1079, read-out: MINIMAL INHIBITORY CONCENTRATION MIC, Mouse Serum): 0.5 µg/mL (≈ 0.699 µM)
- MIC (S. aureus GC 1079; GC1079, read-out: MINIMAL INHIBITORY CONCENTRATION MIC, Water): 0.5 µg/mL (≈ 0.699 µM)
- MIC (S. aureus GC 4536; GC4536, read-out: MINIMAL INHIBITORY CONCENTRATION MIC, Human Serum): 0.25 µg/mL (≈ 0.349 µM)
- MIC (S. aureus GC 4536; GC4536, read-out: MINIMAL INHIBITORY CONCENTRATION MIC, Mouse Serum): 0.25 µg/mL (≈ 0.349 µM)
- MIC (S. aureus GC 4536; GC4536, read-out: MINIMAL INHIBITORY CONCENTRATION MIC, Water): 0.25 µg/mL (≈ 0.349 µM)
- MIC (S. epidermidis GC 4935; GC4935, read-out: MINIMAL INHIBITORY CONCENTRATION MIC, Human Serum): 1 µg/mL (≈ 1.4 µM)
- MIC (S. epidermidis GC 4935; GC4935, read-out: MINIMAL INHIBITORY CONCENTRATION MIC, Mouse Serum): 1 µg/mL (≈ 1.4 µM)
- MIC (S. epidermidis GC 4935; GC4935, read-out: MINIMAL INHIBITORY CONCENTRATION MIC, Water): 2 µg/mL (≈ 2.79 µM)
- MIC (E. faecalis GC 4555; GC4555, read-out: MINIMAL INHIBITORY CONCENTRATION MIC, Human Serum): 0.5 µg/mL (≈ 0.699 µM)
- MIC (E. faecalis GC 4555; GC4555, read-out: MINIMAL INHIBITORY CONCENTRATION MIC, Mouse Serum): 0.25 µg/mL (≈ 0.349 µM)
- MIC (E. faecalis GC 4555; GC4555, read-out: MINIMAL INHIBITORY CONCENTRATION MIC, Water): 4 µg/mL (≈ 5.59 µM)
- MIC (E. faecalis GC 2267; GC2267, read-out: MINIMAL INHIBITORY CONCENTRATION MIC, Human Serum): 1 µg/mL (≈ 1.4 µM)
- MIC (E. faecalis GC 2267; GC2267, read-out: MINIMAL INHIBITORY CONCENTRATION MIC, Mouse Serum): 0.5 µg/mL (≈ 0.699 µM)
- MIC (E. faecalis GC 2267; GC2267, read-out: MINIMAL INHIBITORY CONCENTRATION MIC, Water): 4 µg/mL (≈ 5.59 µM)
- MIC (E. faecalis GC 2242; GC2242, read-out: MINIMAL INHIBITORY CONCENTRATION MIC, Human Serum): 1 µg/mL (≈ 1.4 µM)
- MIC (E. faecalis GC 2242; GC2242, read-out: MINIMAL INHIBITORY CONCENTRATION MIC, Mouse Serum): 0.5 µg/mL (≈ 0.699 µM)
- MIC (E. faecalis GC 2242; GC2242, read-out: MINIMAL INHIBITORY CONCENTRATION MIC, Water): 2 µg/mL (≈ 2.79 µM)
- MIC (S. pneumoniae* GC 4465; [1]): 0.12 µg/mL (≈ 0.168 µM)
- MIC (S. pneumoniae* GC 4465; [2]): 0.12 µg/mL (≈ 0.168 µM)
- MIC (S. pneumoniae* GC 4465; [3]): 0.12 µg/mL (≈ 0.168 µM)
- MIC (S. pneumoniae+ GC 4465; [1]): 1 µg/mL (≈ 1.4 µM)
- MIC (S. pneumoniae+ GC 4465; [2]): 1 µg/mL (≈ 1.4 µM)
- MIC (S. pneumoniae+ GC 4465; [3]): 1 µg/mL (≈ 1.4 µM)
- MIC (S. agalactiae GC 4564; GC4564, read-out: MINIMAL INHIBITORY CONCENTRATION MIC, Human Serum): 0.12 µg/mL (≈ 0.168 µM)
- MIC (S. agalactiae GC 4564; GC4564, read-out: MINIMAL INHIBITORY CONCENTRATION MIC, Mouse Serum): 0.12 µg/mL (≈ 0.168 µM)
- MIC (S. agalactiae GC 4564; GC4564, read-out: MINIMAL INHIBITORY CONCENTRATION MIC, Water): 0.25 µg/mL (≈ 0.349 µM)
- MIC (c. albicans GC 3066; Candida albicans, GC3066, read-out: MINIMAL INHIBITORY CONCENTRATION MIC): > 64 µg/mL
- MINIMAL INHIBITORY CONCENTRATION MIC (c. albicans GC 3066; Human Serum): >64 UG/ML
- MINIMAL INHIBITORY CONCENTRATION MIC (c. albicans GC 3066; Mouse Serum): >64 UG/ML
SMILES: CCC(=O)OCOC(=O)N(CC(=O)Nc1cc(N(C)C)c2c(c1O)C(=O)C1=C(O)[C@]3(O)C(=O)C(C(N)=O)=C(O)[C@@H](N(C)C)[C@@H]3C[C@@H]1C2)C(C)(C)C [Example 49, ({[(2-{[(5aR,6aS,7S,10aS)-9-(aminocarbonyl)-4,7-bis(dimethylamino)-1,8,10a,11-tetrahydroxy-10,12-dioxo-5,5a,6,6a,7,10,10a,12-octahydrotetracen-2-yl]amino}-2-oxoethyl)(tert-butyl)amino]carbonyl}oxy)methyl propionate]
- ED50 (Staph. aureus Smith; Staphylococcus aureus, in Mus musculus, iv, read-out: ED50 SIV (Staph aureus Smith)): 0.92 mg/kg
- ED50 (Staph. aureus Smith; Staphylococcus aureus, in Mus musculus, po, read-out: ED50 SOD (Staph aureus Smith)): 16 mg/kg
- ED50 (Staph. aureus Smith; Staphylococcus aureus, in Mus musculus, po, read-out: ED50 Staph Smith SOD): 16.6 mg/kg
- ED50 (Staph. aureus Smith; iv, read-out: ED50 Staph Smith SIV): 0.92 mg/kg
